From patent publication US20180098969A1, “HODGKIN LYMPHOMA THERAPY” (Purdue Pharmaceutical Products L.P., priority 2016, published 2018)

Experiments:
L428 cells = test: Xenograft in NSG mice, CD30 immunofluorescence of cytospin slides; assay type: in vivo; set-up: key to Spleen, red pulp activation, diffuse / Liver, Tumour cell infiltration: “0”=without any staining; “1”=minimal, <1% staining; “2”=mild, 1% staining; “3”=moderate, <10% staining; “4”=marked, 10-40% staining; “5”=severe, >40% of cells staining; conditions: for Bone Marrow: Tumour infiltration: Marked / Bone Marrow: Tumour infiltration: Mild / Bone Marrow: Tumour infiltration: Minimal / Bone Marrow: Tumour infiltration: Moderate / Bone Marrow: Tumour infiltration: No / Bone Marrow: Tumour infiltration: Overall / Bone Marrow: Tumour infiltration: Severe / Injection site: Tumour infiltration: Marked / Injection site: Tumour infiltration: Mild / Injection site: Tumour infiltration: Minimal / Injection site: Tumour infiltration: Moderate / Injection site: Tumour infiltration: No / Injection site: Tumour infiltration: Overall / Injection site: Tumour infiltration: Severe / Liver: Tumour infiltration: Marked / Liver: Tumour infiltration: Mild / Liver: Tumour infiltration: Minimal / Liver: Tumour infiltration: Moderate / Liver: Tumour infiltration: No / Liver: Tumour infiltration: Overall / Liver: Tumour infiltration: Severe / Spleen: Tumour infiltration: Marked / Spleen: Tumour infiltration: Mild / Spleen: Tumour infiltration: Minimal / Spleen: Tumour infiltration: Moderate / Spleen: Tumour infiltration: No / Spleen: Tumour infiltration: Overall / Spleen: Tumour infiltration: Severe / Tumour presence: Overall: % of mice
Description: Immunodeficient NOD-SCID-gammac−/− (NSG) mice aged 5 to 6 weeks were purchased from Charles River (NOD.Cg-Prkdcscid Il2rgtm1Wjl/SzJ). The mice arrived two weeks before the beginning of the experiments and were housed in micro-isolator cages during the entire course of the study. Immediately prior to the injection of Hodgkin lymphoma cells, mice were exposed to 3 Gy gamma irradiation using an IBL637 ^137Cs irradiator at a dose rate of 0.61 Gy/min. From 10^3 to 10^6 cells, either from the original cell lines or following amplification, were injected intravenously via the retro-orbital sinus. The mice were sacrificed by cervical dislocation and different organs were analysed and tumoural infiltration examined using multiple techniques.
Two independent experiments were performed to investigate the dose-effect of EDO-S101 in NSG mice eight weeks after xenografting with L428 cells as in Example 8. The aim of the protocol shown in FIG. […]
The mice were sacrificed by cervical dislocation. The sampled organs consisted of the eyes (site of injection), liver, spleen and bone marrow. Following dissection of different organs, including tumours, the first portion was used for flow cytometry (FACS) and cytogenetic analyses while the second was fixed in 4% paraformaldehyde (PFA) for immunohistochemistry (IHC). To obtain a single cell suspension, the tissues were first cut into pieces. Thereafter, the cells were physically disaggregated using an 80 μm nylon cell strainer and filtered a second time through a 70 μm nylon cell strainer (BD Biosciences, Erembodegem, Belgium).
Cells were cytospun onto poly-L-lysine-coated glass slides at 700 rpm for 4 min, fixed with 10% formalin for 10 min, and treated with 0.25% Triton X-100 solution for 10 min. After blocking with 5% bovine serum albumin (Sigma), the cells were incubated with an anti-CD30 antibody (DAKO A/S, Glostrup, Denmark). Then, cells were treated with Cyanine 3 anti-mouse IgG (Invitrogen, Carlsbad, Calif.). As a negative control, staining was carried out in the absence of primary antibody. The L428-s cell line served as positive control.
Individual microscopic findings following immunofluorescence CD30 staining of cytopsin slides: “0”=without any staining; “1”=minimal, <1% staining; “2”=mild, 1% staining; “3”=moderate, <10% staining; “4”=marked, 10-40% staining; “5”=severe, >40% of cells staining.

[1] = test system: Hodgkin lymphoma cell lines; test: Apoptosis, annexin V-FITC and Hoechst double staining; assay type: cell-based, human; conditions: 5 μM, 24 h and 48 h, all cells
Protocol: (§1) This assay was performed on 7 cell lines (HDLM2 was excluded due to the low number of available cells) at 24 h and 48 h following EDO-S101 treatment (5 μM, DMSO). Control cells were cultured in the same final concentration of DMSO. Only viable cells (using Hoechst staining) were focused on, and all necrotic cells were excluded. Apoptosis was determined using annexin V-FITC and Hoechst (33342) double staining according to the manufacturer's instructions (BD Biosciences). Cell-cycle fractions were determined by Hoechst nuclear staining. Briefly, cells were harvested, washed in PBS, incubated with annexin V-FITC and Hoechst solution for 30 minutes at room temperature. Data were collected using a FACSCalibur flow cytometer (BD Biosciences) and analyzed with FlowJo Version 7.5.5 obtainable from FlowJo, LLC. Results represent the mean value of 3 independent experiments.

L540 cell = test: as above; assay type: cell-based, human; conditions: 5 μM, 24 h and 48 h
Protocol: as §1

## Cn1c(CCCCCCC(=O)NO)nc2cc(N(CCCl)CCCl)ccc21 [EDO-S101]
L428 cells; 80 mg/kg
  Bone Marrow: Tumour infiltration: Marked: 0.0%
  Bone Marrow: Tumour infiltration: Mild: 0.0%
  Bone Marrow: Tumour infiltration: Minimal: 33.3%
  Bone Marrow: Tumour infiltration: Moderate: 0.0%
  Bone Marrow: Tumour infiltration: No: 33.3%
  Bone Marrow: Tumour infiltration: Overall: 33.3%
  Bone Marrow: Tumour infiltration: Severe: 0.0%
  Injection site: Tumour infiltration: Marked: 0.0%
  Injection site: Tumour infiltration: Mild: 33.3%
  Injection site: Tumour infiltration: Minimal: 0.0%
  Injection site: Tumour infiltration: Moderate: 0.0%
  Injection site: Tumour infiltration: No: 0.0%
  Injection site: Tumour infiltration: Overall: 33.3%
  Injection site: Tumour infiltration: Severe: 0.0%
  Liver: Tumour infiltration: Marked: 0.0%
  Liver: Tumour infiltration: Mild: 0.0%
  Liver: Tumour infiltration: Minimal: 0.0%
  Liver: Tumour infiltration: Moderate: 0.0%
  Liver: Tumour infiltration: No: 100.0%
  Liver: Tumour infiltration: Overall: 0.0%
  Liver: Tumour infiltration: Severe: 0.0%
  Spleen: Tumour infiltration: Marked: 0.0%
  Spleen: Tumour infiltration: Mild: 0.0%
  Spleen: Tumour infiltration: Minimal: 0.0%
  Spleen: Tumour infiltration: Moderate: 0.0%
  Spleen: Tumour infiltration: No: 33.3%
  Spleen: Tumour infiltration: Overall: 0.0%
  Spleen: Tumour infiltration: Severe: 0.0%
  Tumour presence: Overall: 66.7%
L428 cells; 1 * 60 mg/kg
  Bone Marrow: Tumour infiltration: Marked: 0.0%
  Bone Marrow: Tumour infiltration: Mild: 0.0%
  Bone Marrow: Tumour infiltration: Minimal: 25.0%
  Bone Marrow: Tumour infiltration: Moderate: 0.0%
  Bone Marrow: Tumour infiltration: No: 0.0%
  Bone Marrow: Tumour infiltration: Overall: 25.0%
  Bone Marrow: Tumour infiltration: Severe: 0.0%
  Injection site: Tumour infiltration: Marked: 75.0%
  Injection site: Tumour infiltration: Mild: 0.0%
  Injection site: Tumour infiltration: Minimal: 0.0%
  Injection site: Tumour infiltration: Moderate: 25.0%
  Injection site: Tumour infiltration: No: 0.0%
  Injection site: Tumour infiltration: Overall: 100.0%
  Injection site: Tumour infiltration: Severe: 0.0%
  Liver: Tumour infiltration: Marked: 0.0%
  Liver: Tumour infiltration: Mild: 0.0%
  Liver: Tumour infiltration: Minimal: 50.0%
  Liver: Tumour infiltration: Moderate: 25.0%
  Liver: Tumour infiltration: No: 25.0%
  Liver: Tumour infiltration: Overall: 75.0%
  Liver: Tumour infiltration: Severe: 0.0%
  Spleen: Tumour infiltration: Marked: 0.0%
  Spleen: Tumour infiltration: Mild: 0.0%
  Spleen: Tumour infiltration: Minimal: 0.0%
  Spleen: Tumour infiltration: Moderate: 0.0%
  Spleen: Tumour infiltration: No: 25.0%
  Spleen: Tumour infiltration: Overall: 0.0%
  Spleen: Tumour infiltration: Severe: 0.0%
  Tumour presence: Overall: 100.0%
L428 cells; 1 * 60 mg/kg, individual mice
  Bone marrow: 1 (“1”=minimal, <1% staining)
  Spleen, red pulp activation, diffuse: 0
L428 cells; 1 * 80 mg/kg, individual mice
  Eye and/or periocular mucosa, periocular tumour cell infiltration, focal/multifocal/diffuse: 2 (“2”=mild, 1% staining)
  Liver, Tumour cell infiltration: 0
  Spleen, red pulp activation, diffuse: 0
L428 cells; 2 * 60 mg/kg
  Bone Marrow: Tumour infiltration: Marked: 0.0%
  Bone Marrow: Tumour infiltration: Mild: 0.0%
  Bone Marrow: Tumour infiltration: Minimal: 55.6%
  Bone Marrow: Tumour infiltration: Moderate: 0.0%
  Bone Marrow: Tumour infiltration: No: 22.2%
  Bone Marrow: Tumour infiltration: Overall: 55.6%
  Bone Marrow: Tumour infiltration: Severe: 0.0%
  Injection site: Tumour infiltration: Marked: 0.0%
  Injection site: Tumour infiltration: Mild: 11.1%
  Injection site: Tumour infiltration: Minimal: 0.0%
  Injection site: Tumour infiltration: Moderate: 0.0%
  Injection site: Tumour infiltration: No: 0.0%
  Injection site: Tumour infiltration: Overall: 11.1%
  Injection site: Tumour infiltration: Severe: 0.0%
  Liver: Tumour infiltration: Marked: 0.0%
  Liver: Tumour infiltration: Mild: 11.1%
  Liver: Tumour infiltration: Minimal: 44.4%
  Liver: Tumour infiltration: Moderate: 0.0%
  Liver: Tumour infiltration: No: 44.4%
  Liver: Tumour infiltration: Overall: 55.6%
  Liver: Tumour infiltration: Severe: 0.0%
  Spleen: Tumour infiltration: Marked: 0.0%
  Spleen: Tumour infiltration: Mild: 0.0%
  Spleen: Tumour infiltration: Minimal: 44.4%
  Spleen: Tumour infiltration: Moderate: 0.0%
  Spleen: Tumour infiltration: No: 11.1%
  Spleen: Tumour infiltration: Overall: 44.4%
  Spleen: Tumour infiltration: Severe: 0.0%
  Tumour presence: Overall: 66.7%
L428 cells; 2 * 60 mg/kg, individual mice
  Eye and/or periocular mucosa, periocular tumour cell infiltration, focal/multifocal/diffuse: 2 (“2”=mild, 1% staining)
L428 cells; single dose of 80 mg/kg
  tumour cells in organs (liver, spleen, bone marrow): No tumour cells were observed in any organs
[1]
  sensitivity for apoptosis: high sensitivity
L540 cell
  sensitivity for apoptosis: higher sensitivity
